Literature values as cited in patent US20210030918A1, “COATING OF FIBERS WITH DIPEPTIDE NANOSTRUCTURES USING ULTRASONIC CAVITATION” (Ramot at Tel-Aviv University Ltd., priority 2019, published 2021).

- aqueous solubility: poor
Structure (SMILES): COc1cc(/C=C/C(=O)CC(=O)/C=C/c2ccc(O)c(OC)c2)ccc1O [Curcumin, (1E,6E)-1,7-bis(4-hydroxy-3-methoxyphenyl)-1,6-heptadiene-3,5-dione]
